Measured values reported in article PMC12514245, “Impaired migration and lung invasion of human melanoma by a novel small molecule targeting the transmembrane domain of death receptor p75^NTR” (EMBO Molecular Medicine, 2025).
Several values for one entry are separate records, joined by “and”; a condition that tells them apart may be missing. Equal values may be shown once. Read-outs that look alike come from different tables or passages of the source.

Legend:
p75^NTR TMD I252A = target: T1, p75^NTR TMD I252A (Homo sapiens, UniProt P08138, I252A); assay: AraTM assay, I252A mutant p75NTR TMD; assay type: cell-based; conditions: for GFP/OD630, p75NTR I252A, Mean: N=3; for GFP/OD630, Mean / GFP/OD630, individual replicates: I252A;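 on GFP/OD630, p75NTR I252A, Mean: 100% is wild-type TMD GFP/OD630 signal without drug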;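 on GFP/OD630, p75NTR I252A, n1-n3: 100% is wild-type TMD GFP/OD630 signal without drug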
T1 construct: Comparison of wild-type (WT) p75^NTR TMD and I252A, P253G and V254A mutants in the AraTM assay; expressed in transfected cells; host or cells: E. coli AS19 (LPS-negative)
T1 sequence (P08138 250-275 I252A): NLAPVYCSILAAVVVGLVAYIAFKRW

p75^NTR TMD V254A = target: T2, p75^NTR TMD V254A (Homo sapiens, UniProt P08138, V254A); assay: AraTM assay, V254A mutant p75NTR TMD; assay type: cell-based; conditions: for GFP/OD630, p75NTR V254A, Mean: N=3; for GFP/OD630, Mean / GFP/OD630, individual replicates: V254A;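 on GFP/OD630, Mean: normalised to the no-drug GFP/OD630 signal set at 100%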;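 on GFP/OD630, individual replicates: normalised to the no-drug GFP/OD630 signal set at 100%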
T2 construct: Comparison of wild-type (WT) p75^NTR TMD and I252A, P253G and V254A mutants in the AraTM assay; expressed in transfected cells; host or cells: E. coli AS19 (LPS-negative)
T2 sequence (P08138 250-275 V254A): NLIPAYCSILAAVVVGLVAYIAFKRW

α2β3 integrin TMD = assay: AraTM assay, α2β3 integrin TMD; assay type: cell-based; conditions: for GFP/OD630, A2b, mean: N=3
A875 melanoma cells (NT) = assay: Cleaved PARP western blot (apoptosis), A875 NT; assay type: cell-based, human
Protocol: One of the main biological readouts of p75^NTR activity in response to neurotrophins is the induction of caspase-mediated apoptotic cell death (Underwood and Coulson, [2008]; Friedman, [2010]; Ibáñez and Simi, [2012]).
COS7, A875 and WM115 cell lines were cultured under standard conditions in DMEM supplemented with 10% fetal calf serum, 100 units/ml penicillin, […] streptomycin, and 2.5 mM glutamine. All cells were authenticated and tested for mycoplasma contamination. A875-NT (control) and A875 shp75 (knockdown) cell lines were described previously (Goh et al, [2018]).

[1] = target: T3, Matrix-2 protein (M2) TMD (Influenza A virus, UniProt P06821); assay type: cell-based; conditions: for GFP/OD630, M2, mean: N=3
T3 construct: unrelated TMDs from α2β3 integrin and Matrix-2 protein (M2); expressed in transfected cells
T3 sequence (P06821 23-43 limits assumed): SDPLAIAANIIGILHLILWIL

Oc1ccc(-c2cncc(Nc3ccc(Br)c(Cl)c3)n2)cc1 [Div17E5]
effect of Ile252 mutation on compound activity in AraTM assay (p75^NTR TMD I252A): abolished
GFP/OD630, p75NTR I252A, n1-n3 (p75^NTR TMD I252A; Div17E5 7.5 uM): 99% and 104% and 92%
GFP/OD630, p75NTR I252A, Mean (p75^NTR TMD I252A; Div17E5 7.5 uM): 98%
GFP/OD630, p75NTR I252A, n1-n3 (p75^NTR TMD I252A; Div17E5 15 uM): 98% and 107% and 87%
GFP/OD630, p75NTR I252A, Mean (p75^NTR TMD I252A; Div17E5 15 uM): 97%
GFP/OD630, p75NTR I252A, n1-n3 (p75^NTR TMD I252A; Div17E5 20 uM): 96% and 91% and 100%
GFP/OD630, p75NTR I252A, Mean (p75^NTR TMD I252A; Div17E5 20 uM): 96%
GFP/OD630, p75NTR I252A, n1-n3 (p75^NTR TMD I252A; Div17E5 50 uM): 99% and 106% and 92%
GFP/OD630, p75NTR I252A, Mean (p75^NTR TMD I252A; Div17E5 50 uM): 99%
effect of Val254 mutation on compound activity in AraTM assay (p75^NTR TMD V254A): abolished
GFP/OD630, p75NTR V254A, n1-n3 (p75^NTR TMD V254A; Div17E5 7.5 uM): 87% and 97% and 91%
GFP/OD630, p75NTR V254A, Mean (p75^NTR TMD V254A; Div17E5 7.5 uM): 92%
GFP/OD630, p75NTR V254A, n1-n3 (p75^NTR TMD V254A; Div17E5 15 uM): 86% and 95% and 96%
GFP/OD630, p75NTR V254A, Mean (p75^NTR TMD V254A; Div17E5 15 uM): 92%
GFP/OD630, p75NTR V254A, n1-n3 (p75^NTR TMD V254A; Div17E5 20 uM): 89% and 96% and 99%
GFP/OD630, p75NTR V254A, Mean (p75^NTR TMD V254A; Div17E5 20 uM): 95%
GFP/OD630, p75NTR V254A, n1-n3 (p75^NTR TMD V254A; Div17E5 50 uM): 95% and 85% and 98%
GFP/OD630, p75NTR V254A, Mean (p75^NTR TMD V254A; Div17E5 50 uM): 93%
GFP/OD630, A2b, single replicates (α2β3 integrin TMD; Div17E5 1 μM): 111 and 92 and 98
GFP/OD630, A2b, mean (α2β3 integrin TMD; Div17E5 1 μM): 100
GFP/OD630, A2b, single replicates (α2β3 integrin TMD; Div17E5 2.5 μM): 89 and 116 and 95
GFP/OD630, A2b, mean (α2β3 integrin TMD; Div17E5 2.5 μM): 100
GFP/OD630, A2b, single replicates (α2β3 integrin TMD; Div17E5 5 μM): 95 and 87 and 112
GFP/OD630, A2b, mean (α2β3 integrin TMD; Div17E5 5 μM): 98
GFP/OD630, A2b, single replicates (α2β3 integrin TMD; Div17E5 10 μM): 81 and 96 and 87
GFP/OD630, A2b, mean (α2β3 integrin TMD; Div17E5 10 μM): 88
GFP/OD630, A2b, single replicates (α2β3 integrin TMD; Div17E5 20 μM): 90 and 98 and 82
GFP/OD630, A2b, mean (α2β3 integrin TMD; Div17E5 20 μM): 90
GFP/OD630, A2b, single replicates (α2β3 integrin TMD; Div17E5 50 μM): 79 and 86 and 94
GFP/OD630, A2b, mean (α2β3 integrin TMD; Div17E5 50 μM): 86
apoptosis (cleavage of PARP) (A875 melanoma cells (NT)): induced apoptosis
Cleaved PARP normalized to DMSO, individual replicates (A875 melanoma cells (NT); 0.5uM): 2.699 and 3.180 and 5.109
Cleaved PARP/actin, individual replicates (A875 melanoma cells (NT); 0.5uM): 0.023 and 0.026 and 0.037
Cleaved PARP normalized to DMSO, Average (A875 melanoma cells (NT); 0.5μM): 3.662
Cleaved PARP normalized to DMSO, individual replicates (A875 melanoma cells (NT); 1uM): 10.573 and 9.243 and 5.315
Cleaved PARP/actin, individual replicates (A875 melanoma cells (NT); 1uM): 0.078 and 0.043 and 0.077
Cleaved PARP normalized to DMSO, Average (A875 melanoma cells (NT); 1μM): 8.377
Cleaved PARP normalized to DMSO, individual replicates (A875 melanoma cells (NT); 2uM): 25.774 and 23.617 and 17.703
Cleaved PARP/actin, individual replicates (A875 melanoma cells (NT); 2uM): 0.187 and 0.200 and 0.142
Cleaved PARP normalized to DMSO, Average (A875 melanoma cells (NT); 2μM): 22.365
Cleaved PARP normalized to DMSO, individual replicates (A875 melanoma cells (NT); 5uM): 31.874 and 36.234 and 27.415
Cleaved PARP/actin, individual replicates (A875 melanoma cells (NT); 5uM): 0.231 and 0.306 and 0.220
Cleaved PARP normalized to DMSO, Average (A875 melanoma cells (NT); 5μM): 31.841
GFP/OD630, M2, single replicates ([1]; Div17E5 1 μM): 96 and 90 and 113
GFP/OD630, M2, mean ([1]; Div17E5 1 μM): 100
GFP/OD630, M2, single replicates ([1]; Div17E5 2.5 μM): 94 (2×) and 111
GFP/OD630, M2, mean ([1]; Div17E5 2.5 μM): 100
GFP/OD630, M2, single replicates ([1]; Div17E5 5 μM): 89 and 109 and 92
GFP/OD630, M2, mean ([1]; Div17E5 5 μM): 97
GFP/OD630, M2, single replicates ([1]; Div17E5 10 μM): 90 and 105 and 99
GFP/OD630, M2, mean ([1]; Div17E5 10 μM): 98
GFP/OD630, M2, single replicates ([1]; Div17E5 20 μM): 109 and 89 and 98
GFP/OD630, M2, mean ([1]; Div17E5 20 μM): 99
GFP/OD630, M2, single replicates ([1]; Div17E5 50 μM): 112 and 92 and 109
GFP/OD630, M2, mean ([1]; Div17E5 50 μM): 104

Cc1cccc(-c2cncc(Nc3ccc(Br)c(Cl)c3Cl)n2)c1C [Np75-4A22]
effect of Ile252 mutation on compound activity in AraTM assay (p75^NTR TMD I252A): affected
GFP/OD630, Mean (p75^NTR TMD I252A; compound 5 μM): 0.99
GFP/OD630, individual replicates (p75^NTR TMD I252A; compound 5 μM): 0.93 and 1.08 and 0.97
GFP/OD630, Mean (p75^NTR TMD I252A; compound 10 μM): 0.85
GFP/OD630, individual replicates (p75^NTR TMD I252A; compound 10 μM): 0.76 and 0.91 and 0.89
GFP/OD630, Mean (p75^NTR TMD I252A; compound 20 μM): 0.84
GFP/OD630, individual replicates (p75^NTR TMD I252A; compound 20 μM): 1.01 and 0.83 and 0.69
GFP/OD630, Mean (p75^NTR TMD I252A; compound 30 μM): 0.73
GFP/OD630, individual replicates (p75^NTR TMD I252A; compound 30 μM): 0.91 and 0.67 and 0.61
GFP/OD630, Mean (p75^NTR TMD I252A; compound 40 μM): 0.72
GFP/OD630, individual replicates (p75^NTR TMD I252A; compound 40 μM): 0.77 and 0.62 and 0.76
effect of Val254 mutation on compound activity in AraTM assay (p75^NTR TMD V254A): unaffected
GFP/OD630, Mean (p75^NTR TMD V254A; compound 5 μM): 0.83
GFP/OD630, individual replicates (p75^NTR TMD V254A; compound 5 μM): 0.98 and 0.74 and 0.77
GFP/OD630, Mean (p75^NTR TMD V254A; compound 10 μM): 0.64
GFP/OD630, individual replicates (p75^NTR TMD V254A; compound 10 μM): 0.63 (2×) and 0.65
GFP/OD630, Mean (p75^NTR TMD V254A; compound 20 μM): 0.61
GFP/OD630, individual replicates (p75^NTR TMD V254A; compound 20 μM): 0.46 and 0.62 and 0.74
GFP/OD630, Mean (p75^NTR TMD V254A; compound 30 μM): 0.47
GFP/OD630, individual replicates (p75^NTR TMD V254A; compound 30 μM): 0.41 and 0.51 and 0.50
GFP/OD630, Mean (p75^NTR TMD V254A; compound 40 μM): 0.54
GFP/OD630, individual replicates (p75^NTR TMD V254A; compound 40 μM): 0.57 and 0.51 and 0.53
Cleaved PARP normalized to DMSO, individual replicates (A875 melanoma cells (NT); 0.5uM): 5.004 and 2.098 and 0.920
Cleaved PARP/actin, individual replicates (A875 melanoma cells (NT); 0.5uM): 0.036 and 0.018 and 0.00739
Cleaved PARP normalized to DMSO, Average (A875 melanoma cells (NT); 0.5μM): 2.674
Cleaved PARP normalized to DMSO, individual replicates (A875 melanoma cells (NT); 1uM): 1.063 and 1.446 and 0.643
Cleaved PARP/actin, individual replicates (A875 melanoma cells (NT); 1uM): 0.008 and 0.012 and 0.005
Cleaved PARP normalized to DMSO, Average (A875 melanoma cells (NT); 1μM): 1.051
Cleaved PARP normalized to DMSO, individual replicates (A875 melanoma cells (NT); 2uM): 0.550 and 3.611 and 2.270
Cleaved PARP/actin, individual replicates (A875 melanoma cells (NT); 2uM): 0.004 and 0.031 and 0.018
Cleaved PARP normalized to DMSO, Average (A875 melanoma cells (NT); 2μM): 2.144
Cleaved PARP normalized to DMSO, individual replicates (A875 melanoma cells (NT); 5uM): 1.726 and 2.128 and 2.224
Cleaved PARP/actin, individual replicates (A875 melanoma cells (NT); 5uM): 0.013 and 0.018
Cleaved PARP normalized to DMSO, Average (A875 melanoma cells (NT); 5μM): 2.026
apoptosis (PARP cleavage) (A875 melanoma cells (NT); submicromolar and low micromolar range (0.5 to 5 µM)): did not induce apoptosis
